Measured values: patent US7528138B2, “Pyrazolo[1,5-a]pyrimidines useful as inhibitors of protein kinases” (Vertex Pharmaceuticals Incorporated, priority 2004, dated 2009)

What was measured:
Format in all cases: biochemical
[1] = target: T1, Aurora-2 (Homo sapiens, UniProt O14965); test: Aurora-A (Aurora-2) Inhibition Assay, coupled enzyme assay; details: enzyme inhibition data (Ki), Table 11; read-out: AurA Ki
T1 sequence (O14965 1-403): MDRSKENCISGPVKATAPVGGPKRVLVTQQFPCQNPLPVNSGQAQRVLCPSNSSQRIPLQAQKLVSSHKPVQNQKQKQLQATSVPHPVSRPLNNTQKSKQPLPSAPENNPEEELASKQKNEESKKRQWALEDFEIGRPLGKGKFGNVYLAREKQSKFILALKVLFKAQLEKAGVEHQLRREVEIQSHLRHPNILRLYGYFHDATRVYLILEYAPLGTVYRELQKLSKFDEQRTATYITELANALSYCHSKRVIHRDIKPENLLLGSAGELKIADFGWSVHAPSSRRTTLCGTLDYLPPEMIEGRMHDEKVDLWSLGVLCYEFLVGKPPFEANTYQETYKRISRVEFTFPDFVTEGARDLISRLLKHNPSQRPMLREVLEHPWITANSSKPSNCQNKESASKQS
Procedure: Compounds are screened for their ability to inhibit Aurora-2 using a standard coupled enzyme assay (Fox et al., Protein Sci., (1998) 7, 2249). Assays are carried out in a mixture of 100 mM Hepes (pH7.5), 10 mM MgCl2, 1 mM DTT, 25 mM NaCl, 2.5 mM phosphoenolpyruvate, 300 μM NADH, 30 μg/ml pyruvate kinase and 10 μg/ml lactate dehydrogenase. Final substrate concentrations in the assay are 400 μM ATP (Sigma Chemicals) and 570 μM peptide (Kemptide, American Peptide, Sunnyvale, Calif.). Assays are carried out at 30° C. and in the presence of 40 nM Aurora-2.
An assay stock buffer solution is prepared containing all of the reagents listed above, with the exception of Aurora-2 and the test compound of interest. 55 μl of the stock solution is placed in a 96 well plate followed by addition of 2 μl of DMSO stock containing serial dilutions of the test compound (typically starting from a final concentration of 7.5 μM). The plate is preincubated for 10 minutes at 30° C. and the reaction initiated by addition of 10 μl of Aurora-2. Initial reaction rates are determined with a Molecular Devices SpectraMax Plus plate reader over a 10 minute time course. IC50 and Ki data are calculated from non-linear regression analysis using the Prism software package (GraphPad Prism version 3.0cx for Macintosh, GraphPad Software, San Diego Calif., USA).

[2] = target: T2, Itk (Homo sapiens, UniProt Q08881); test: ITK Inhibition Assay (Radiometric), radioactive-phosphate incorporation; details: enzyme inhibition data (Ki), Table 11; radiometric or UV assay not stated
T2 sequence (Q08881 1-620): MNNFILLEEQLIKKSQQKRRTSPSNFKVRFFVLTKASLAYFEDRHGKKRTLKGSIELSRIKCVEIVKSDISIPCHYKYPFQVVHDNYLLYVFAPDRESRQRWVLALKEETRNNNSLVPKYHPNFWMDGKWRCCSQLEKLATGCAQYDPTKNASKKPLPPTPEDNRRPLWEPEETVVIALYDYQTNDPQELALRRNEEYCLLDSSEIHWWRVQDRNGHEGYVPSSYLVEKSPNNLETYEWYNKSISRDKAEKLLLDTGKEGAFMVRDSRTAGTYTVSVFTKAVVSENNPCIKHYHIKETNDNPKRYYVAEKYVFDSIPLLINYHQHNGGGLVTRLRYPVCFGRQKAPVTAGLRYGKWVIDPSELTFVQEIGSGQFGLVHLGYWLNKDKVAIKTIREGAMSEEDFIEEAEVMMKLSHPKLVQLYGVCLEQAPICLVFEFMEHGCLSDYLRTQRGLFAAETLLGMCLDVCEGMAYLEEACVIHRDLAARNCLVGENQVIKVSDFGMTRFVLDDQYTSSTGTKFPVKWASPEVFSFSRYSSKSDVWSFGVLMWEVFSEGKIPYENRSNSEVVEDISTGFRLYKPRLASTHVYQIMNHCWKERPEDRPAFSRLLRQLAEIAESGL
Procedure, shortened: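 Radiometric 33P incorporation into SAM68 peptide (D332-443) with filter capture and scintillation counting; 10 min pre-incubation then 10 min reaction at 25° C. IC50 format: 30 nM Itk, 15 μM ATP, 2 μM peptide, HEPES pH 7.5. Ki(app) format: 50 nM Itk, 7.5 μM ATP, 3 μM peptide, MOPS pH 7.0.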

[3] = target: c-Met (Homo sapiens, UniProt P08581); test: c-Met Inhibition Assay, coupled enzyme system; details: enzyme inhibition data (Ki), Table 11
c-Met, sequence (P08581 25-1390): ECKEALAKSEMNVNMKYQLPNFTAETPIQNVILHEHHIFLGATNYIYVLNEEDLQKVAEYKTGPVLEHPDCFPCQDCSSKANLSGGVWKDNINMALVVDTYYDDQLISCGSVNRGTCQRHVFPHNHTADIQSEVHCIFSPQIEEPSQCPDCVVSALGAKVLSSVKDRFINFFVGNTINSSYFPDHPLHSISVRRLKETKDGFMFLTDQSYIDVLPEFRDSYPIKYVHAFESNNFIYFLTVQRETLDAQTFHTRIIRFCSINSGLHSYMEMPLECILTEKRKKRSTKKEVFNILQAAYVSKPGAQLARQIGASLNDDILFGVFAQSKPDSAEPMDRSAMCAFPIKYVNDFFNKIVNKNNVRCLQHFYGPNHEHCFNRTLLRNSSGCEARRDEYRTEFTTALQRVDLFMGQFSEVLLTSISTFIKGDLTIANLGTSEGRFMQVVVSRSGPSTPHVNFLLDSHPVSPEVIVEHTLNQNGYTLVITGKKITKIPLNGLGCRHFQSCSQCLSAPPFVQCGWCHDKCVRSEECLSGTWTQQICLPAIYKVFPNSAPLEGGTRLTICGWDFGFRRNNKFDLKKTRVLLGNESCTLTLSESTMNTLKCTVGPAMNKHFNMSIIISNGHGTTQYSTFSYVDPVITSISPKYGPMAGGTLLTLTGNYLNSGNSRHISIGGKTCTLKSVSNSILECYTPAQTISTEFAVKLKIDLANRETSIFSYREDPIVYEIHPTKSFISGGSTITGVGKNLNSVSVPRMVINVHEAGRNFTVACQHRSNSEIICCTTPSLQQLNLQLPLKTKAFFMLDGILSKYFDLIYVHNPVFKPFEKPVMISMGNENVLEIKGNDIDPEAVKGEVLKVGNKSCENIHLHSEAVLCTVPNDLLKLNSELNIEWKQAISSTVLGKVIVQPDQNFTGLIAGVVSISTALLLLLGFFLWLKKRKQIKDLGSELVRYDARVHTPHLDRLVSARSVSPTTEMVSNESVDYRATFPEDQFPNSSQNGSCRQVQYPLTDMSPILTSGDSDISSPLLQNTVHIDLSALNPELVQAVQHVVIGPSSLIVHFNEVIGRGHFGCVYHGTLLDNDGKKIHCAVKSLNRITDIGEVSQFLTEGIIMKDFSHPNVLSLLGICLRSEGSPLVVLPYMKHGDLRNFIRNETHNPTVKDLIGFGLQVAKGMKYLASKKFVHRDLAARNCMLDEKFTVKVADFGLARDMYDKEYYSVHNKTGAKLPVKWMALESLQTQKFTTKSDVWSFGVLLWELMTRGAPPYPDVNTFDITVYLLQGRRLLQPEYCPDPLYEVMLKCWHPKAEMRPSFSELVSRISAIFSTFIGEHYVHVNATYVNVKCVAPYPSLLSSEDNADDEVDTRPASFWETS
Procedure, shortened: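 Pyruvate kinase/lactate dehydrogenase-coupled NADH assay in HEPES pH 7.5 with 80 nM c-Met, 200 μM ATP and 10 μM polyGluTyr at 30° C. Compound (0.006–12.5 μM final, 12-point) preincubated 10 min before ATP start; rates over 10 min gave Ki.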

[4] = target: T3, JAK3 (Homo sapiens, UniProt P52333); test: JAK3 Inhibition Assay, 33P incorporation; details: enzyme inhibition data (Ki), Table 11
T3 sequence (P52333 1-1124): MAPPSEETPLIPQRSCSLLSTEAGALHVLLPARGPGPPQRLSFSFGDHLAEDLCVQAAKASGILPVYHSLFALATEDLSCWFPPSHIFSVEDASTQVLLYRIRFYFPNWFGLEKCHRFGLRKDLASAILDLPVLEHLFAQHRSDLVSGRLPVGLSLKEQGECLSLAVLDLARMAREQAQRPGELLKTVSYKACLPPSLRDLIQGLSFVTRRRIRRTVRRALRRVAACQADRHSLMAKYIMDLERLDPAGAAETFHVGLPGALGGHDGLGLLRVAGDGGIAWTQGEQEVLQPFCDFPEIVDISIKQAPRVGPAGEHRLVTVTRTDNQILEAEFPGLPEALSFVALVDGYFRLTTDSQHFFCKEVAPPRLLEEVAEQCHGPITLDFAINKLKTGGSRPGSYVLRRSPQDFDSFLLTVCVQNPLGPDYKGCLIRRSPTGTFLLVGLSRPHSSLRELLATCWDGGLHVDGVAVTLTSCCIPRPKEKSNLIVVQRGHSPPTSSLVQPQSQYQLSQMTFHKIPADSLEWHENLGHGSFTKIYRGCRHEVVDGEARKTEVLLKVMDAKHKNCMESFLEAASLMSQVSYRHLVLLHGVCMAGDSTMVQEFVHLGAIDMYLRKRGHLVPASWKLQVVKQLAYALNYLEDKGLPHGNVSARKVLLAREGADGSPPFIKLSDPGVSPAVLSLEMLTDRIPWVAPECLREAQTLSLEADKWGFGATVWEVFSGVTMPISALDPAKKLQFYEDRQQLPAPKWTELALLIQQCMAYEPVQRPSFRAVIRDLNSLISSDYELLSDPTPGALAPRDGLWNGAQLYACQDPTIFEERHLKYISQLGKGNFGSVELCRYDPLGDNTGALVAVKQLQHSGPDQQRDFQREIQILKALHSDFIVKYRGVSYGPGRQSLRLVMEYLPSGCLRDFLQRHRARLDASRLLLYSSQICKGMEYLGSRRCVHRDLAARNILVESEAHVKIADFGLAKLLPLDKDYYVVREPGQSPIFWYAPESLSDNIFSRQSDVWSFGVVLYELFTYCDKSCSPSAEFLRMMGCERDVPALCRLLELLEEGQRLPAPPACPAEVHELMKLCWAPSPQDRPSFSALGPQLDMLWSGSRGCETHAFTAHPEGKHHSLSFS
Procedure, shortened: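 33P incorporation into 1 μM poly(Glu)4Tyr was counted after TCA stop and glass fiber filtration. The 20 min reaction ran at 25 °C with 1 nM JAK3 and 5 μM ATP (200 uCi/μmole). Buffer was 100 mM HEPES pH 7.4, 10 mM MgCl2, 25 mM NaCl, 1 mM DTT, 0.01% BSA.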

Row | Compound | Ki [1] [nM] | Ki [2] [nM] | Ki [3] [nM] | Ki [4] [nM]
1 | Nc1nn2cc(CCCNC3CCC3)cnc2c1-c1ccccn1 [Compound V-324] | – | 500 to 5000 | < 500 | > 5000
2 | CC(C)CNC(=O)c1cnc2c(-c3ccccn3)c(N)nn2c1 [Compound V-205] | – | 500 to 5000 | 500 to 5000 | > 5000
3 | CCN(CCCCN)C(=O)c1cccc(-c2cnc3c(-c4ccccn4)c(N)nn3c2)n1 [Compound V-110] | – | < 500 | < 500 | 500 to 5000
4 | COC(=O)/C=C/c1ccccc1-c1cnc2c(-c3ccccn3)c(N)nn2c1 [Compound V-17] | – | 500 to 5000 | 500 to 5000 | > 5000

Other lines, results leading:

Row | Ki [1] [nM] | Ki [2] [nM] | Ki [3] [nM] | Ki [4] [nM] | Compound
5 | < 500 | < 500 | – | – | CC(C)(C)OC(=O)NCc1ccc(-c2cnc3c(-c4ccccn4)c(N)nn3c2)cc1 [Compound V-192]
6 | < 500 | < 500 | < 500 | – | Nc1nn2cc(-c3ccc(CN4CCCNCC4)cc3)cnc2c1-c1ccccn1 [Compound V-224]
7 | – | 500 to 5000 | < 500 | 500 to 5000 | CC(=O)N1CCN(c2ccc(-c3cnc4c(-c5ccccn5)c(N)nn4c3)cn2)CC1 [Compound V-149]
8 | – | 500 to 5000 | 500 to 5000 | > 5000 | Nc1nn2cc(-c3ccccc3C(=O)O)cnc2c1-c1ccccn1 [Compound V-11]
